In patent US20260021109A1, “PROSTANOID RECEPTOR AGONISTS AS NON-TUBERCULOUS ANTI-MYCOBACTERIAL AGENTS” (priority 2022, published 2026):

Columns and labels:
[1] = test system: M. abscessus; assay: in vitro infection of THP1 monocytic human cell line with M. abscessus; assay type: cell-based; details: for M. abscessus survival rate: THP1 cells, 48H, untreated control 2.7, p=0.005, FIG. 4A
[2] = test system: M. tuberculosis; assay: in vitro infection of THP1 monocytic human cell line with M. tuberculosis; assay type: cell-based; details: THP1 cells, untreated control 0.50, p=0.0165, FIG. 4B
[3] = test system: M. marinum; assay: M. marinum infection of zebrafish; assay type: in vivo; details: zebrafish infected by M. marinum; FIG. 4C
[4] = test system: M. abscessus; details: zebrafish, in vivo
[5] = test system: M. abscessus; assay: M. abscessus in liquid culture (absence of THP1 cells); assay type: cell-based; details: liquid culture medium, no THP1 cells; Treprostinil 50 μM; versus untreated; FIG. 6
[6] = test system: zebrafish homolog of the EP2 receptor (EP2a); assay: CRISPR EP2a KO zebrafish infected with M. abscessus; assay type: in vivo; details: M. abscessus infected control and F0 CRISPR EP2a KO zebrafish; FIG. 7
Text: To explore the mechanism of action of Treprostinil in this context, the zebrafish homolog of the EP2 receptor was knocked out using CRISPR and control and KO zebrafish were infected with M. abscessus. […] This definitively confirms that Treprostinil acts via an EP2-mediated host-directed therapeutic effect.

CCCCC[C@H](O)CC[C@@H]1[C@H]2Cc3cccc(OCC(=O)O)c3C[C@H]2C[C@H]1O [Treprostinil]
dose response of killing of M. abscessus ([1]; FIG. 5B, THP1 killing of M. abscessus according to legend b39): dose response to the effect was also observed | M. abscessus survival rate ([1]; 400 nM): 1.07 | M. abscessus survival rate ([1]; 1 μM): 1.24 | M. tuberculosis survival rate ([2]; 400 nM): 0.44 | M. tuberculosis survival rate ([2]; 1 μM): 0.37 | effect on M. marinum numbers in zebrafish [3]: no observable effect | killing of M. abscessus compared with imipenem [4]: significantly more effective than imipenem | direct antibiotic effect on M. abscessus growth [5]: no difference in growth | Treprostinil rescue in EP2a KO zebrafish [6]: completely abrogated
